Results on 19 compounds are retold here after patent US10301292B2, “Bicyclic compound” (Takeda Pharmaceutical Company Limited, priority 2014, dated 2019).

For one assay, the target named is T1, human ACC1 (Homo sapiens, UniProt Q13085).
T1 construct: His tag (from vector pFAST-BacHTc; protein captured on Ni-NTA) (N); made in house; host or cells: SF-9 insect cells, recombinant baculovirus BAC-ACC1
Briefly: Measurement of ACC1 inhibitory activity (Malonyl-CoA production, RapidFire-mass spectrometry). It is filed as biochemical. The settings on record: 10 μM of the test compound, recombinant human ACC1; for inhibition at 10 µM: read-out: ACC1 inhibitory rate (%) at 10 μM. The procedure:
(1) Cloning of Human ACC1 Gene and Preparation of Recombinant Baculovirus
Human ACC1 gene was cloned by PCR using a human liver cDNA library (Clontech) as a template and Primer 1 and Primer 2 shown below. Primer 1 and Primer 2 were prepared by adding SalI, NotI restriction enzyme recognition sequences based on the information of the base sequence of human ACC1 gene (Genbank Accession U19822).
PCR was performed using Pyrobest DNA polymerase (TAKARA BIO INC.). The obtained PCR product was cloned to pT7 Blue vector (Novagen) and after confirmation of the base sequence, digested with restriction enzymes SalI and XbaI. The obtained DNA fragment was inserted into pFAST-BacHTc (Invitrogen) digested with restriction enzymes SalI and XbaI to give expression plasmid ACC1/pFAST-BacHTc.
Using the expression plasmid ACC1/pFAST-BacHTc and BAC-TO-BAC Baculovirus Expression System (Invitrogen), virus stock BAC-ACC1 of recombinant Baculovirus was prepared.
(2) Preparation of ACC1 Protein
SF-9 cells (Invitrogen) were inoculated to a medium (10 L) for insect cells (Sf-900IISFM medium (Invitrogen) containing 5% fetal bovine serum (Trace), 50 mg/L Gentamicin (Wako Pure Chemical Industries, Ltd.), 0.1% Pluronic F-68 (Invitrogen)) at 1.0×10^6 cells/mL, and cultured with shaking in Wave Bioreactor (GE Healthcare) at 27° C., 20 rpm, rocking angle 10°, oxygen concentration 30%.
On day 2 of the culture, recombinant Baculovirus BAC-ACC1 was added, and the cells were cultured for 3 days. The culture medium was centrifuged at 4000×g for 10 min to give virus-infected cells. The cells were washed with phosphate buffered saline (Invitrogen) and centrifuged under the same conditions. The obtained cells were cryopreserved at −80° C.
The cryopreserved cells were thawed in ice and suspended in 800 mL of 25 mM HEPES buffer (pH 7.5) containing 10% Glycerol, 0.3 M NaCl, 1 mM EDTA, 25 mM Sodium β-Glycerophosphate and 1 mM Sodium Orthovanadate, and supplemented with Complete Protease Inhibitor (Roche). The obtained suspension was homogenized two times in a polytron homogenizer (Kinematica) at 20,000 rpm for 20 sec. The obtained cell disruption solution was clarified by centrifugation at 186,000×g for 60 min and the supernatant was passed through Ni-NTA Superflow Cartridges (5 mL) (QUIAGEN). Furthermore, it was washed with 25 mM HEPES buffer (pH 7.5) containing 20 mM Imidazole, 0.3 M NaCl, and eluted with 25 mM HEPES buffer (pH 7.5) containing 250 mM Imidazol, 0.3 M NaCl. The eluate was concentrated by Amicon Ultra-15 (Nihon Millipore K.K.) having a fraction molecular weight of 50K. The obtained concentrate was subjected to gel filtration with 50 mM HEPES buffer (pH 7.5) containing 10 mM MgCl2, 2 mM dithiothreitol, 10 mM tripotassium citrate, 0.3 M NaCl by using HiLoad 26/60 Superdex200 prep grade gel filtration column (GE Healthcare) to give ACC1. The obtained ACC1 was cryopreserved at −80° C.
(3) Measurement of ACC1 Inhibitory Activity
ACC1 obtained in the above-mentioned (2) was diluted with an enzyme reaction buffer (50 mM HEPES (pH 7.5), 10 mM MgCl2, 10 mM Tripottasium Citrate, 2 mM Dithiothreitol, 0.001% Fatty acid free BSA) to a concentration of 0.2 μg/ml, and the mixture was added to each well of a 384 well assay plate by 10 μl. A test compound dissolved in dimethyl sulfoxide (DMSO) was diluted with an enzyme reaction buffer and the resulting solution (5 μl) was added to each well. The mixture was incubated at room temperature for 60 min. Then, a substrate solution (50 mM KHCO3, 200 μM ATP, 200 μM Acetyl-CoA, 5 μl) was added to each well, and the mixture was reacted at room temperature for 30 min. The reaction was quenched by adding a reaction quenching liquid (1.3% formic acid, 0.2 μM Malonyl-^13C3-CoA) by 60 μL each to the obtained reaction mixtures (test compound addition group).
In addition, a reaction was performed in the same manner as above and without adding the test compound (test compound non-addition group). […]

The subject of the next assay is HCT116 cells. The experiment in a line: Growth inhibitory activity on HCT116 cell (CellTiter-Glo). Type of assay: cell-based. The settings on record: table head: 10 μM (text b2498: 1 μM), 3 days incubation; for inhibition at 10 µM: Homo sapiens, HCT-116, 72 h, read-out: HCT116 cell proliferation inhibitory rate (%) at 10 μM. The procedure: The growth inhibitory activity of the compound on HCT116 cell was evaluated by the following method.
HCT116 cells were seeded in a 384 well blackplate at 900 cells/30 μL/well, and maintained in an RPMI medium (Wako)) containing an assay medium (2% fetal bovine serum, 50 Unit/mL penicillin, 50 μg/mL streptomycin (Invitrogen). The next day, a test compound dissolved in dimethyl sulfoxide (DMSO) was diluted with the assay medium, and the obtained compound solution was added by 10 μL to each well of a plate containing HCT116 cells and incubated at 37° C., 5% CO2 (test compound addition group).
A similar reaction was performed without adding a test compound (test compound non-addition group).
Furthermore, a similar reaction was performed under the conditions without adding HCT116 cell and a test compound (control group).
After 3 days, 20 μL of a CellTiter-Glo reagent (Promega KK) was added to the well, and the mixture was stirred for 10 min. Thereafter, the luminescence value of each well was measured by the EnVision™ multilabel counter (Perkin Elmer Inc.).
The HCT116 cell proliferation inhibitory rate (%) of the test compound was determined by the following calculation formula. (1−(luminescence of test compound addition group−luminescence of control group)÷(luminescence of test compound nonaddition group−luminescence of control group))×100

Turning to `CC(=O)NC(C)c1ccc2nc(N3CC(Oc4cccc(OCC5CC5)c4)C3)oc2c1` (stereo not drawn) [Example 1, N-(1-(2-(3-(3-(cyclopropylmethoxy)phenoxy)azetidin-1-yl)-1,3-benzoxazol-6-yl)ethyl)acetamide], at human ACC1, the inhibition at 10 µM turned out to be 100%. In addition, the “HCT116 cell proliferation inhibitory rate (%) at 10 μM” value in the assay on HCT116 cells was 12%. With `CC(=O)NC(C)c1ccc2nc(N3CC(Oc4cccc(OCC5CC5)c4)C3)oc2c1` (stereo not drawn) [Example 1b, N-(1-(2-(3-(3-(cyclopropylmethoxy)phenoxy)azetidin-1-yl)-1,3-benzoxazol-6-yl)ethyl)acetamide], at human ACC1 (10 µM), the “ACC1 inhibitory rate (%) at 10 μM” value is given as 96%. For the same compound, in the assay on HCT116 cells, the “HCT116 cell proliferation inhibitory rate (%) at 10 μM” value is given as 32%. On to `CC(=O)NC(C)c1ccc2nc(-c3ccc(Oc4cccc(OCC5CC5)c4)cc3)oc2c1` (stereo not drawn) [Example 8, N-(1-(2-(4-(3-(cyclopropylmethoxy)phenoxy)phenyl)-1,3-benzoxazol-6-yl)ethyl)acetamide], for which the inhibition at 10 µM was found to be 95% on human ACC1 and 42% in the assay with HCT116 cells. On the same counts, the results for `CC(=O)NC(C)c1ccc2nc(-c3ccc(Oc4cccc(OCC5CC5)c4)cn3)oc2c1` (stereo not drawn) [Example 9, N-(1-(2-(5-(3-(cyclopropylmethoxy)phenoxy)pyridin-2-yl)-1,3-benzoxazol-6-yl)ethyl)acetamide] are 99% and 45%.

`CC(=O)NC(C)c1ccc2nc(-c3ccc(Oc4cccc(OCC5CC5)c4)cn3)oc2c1` (stereo not drawn) [Example 9b, N-(1-(2-(5-(3-(cyclopropylmethoxy)phenoxy)pyridin-2-yl)-1,3-benzoxazol-6-yl)ethyl)acetamide]: the “ACC1 inhibitory rate (%) at 10 μM” value on human ACC1 worked out at 99%. Moreover, in the assay with HCT116 cells, the “HCT116 cell proliferation inhibitory rate (%) at 10 μM” value amounted to 29%. For the compound `CCCOc1cccc(Oc2ccc(-c3nc4ccc(C(C)NC(C)=O)cc4o3)nc2)c1` (stereo not drawn) [Example 12, N-(1-(2-(5-(3-propoxyphenoxy)pyridin-2-yl)-1,3-benzoxazol-6-yl)ethyl)acetamide], the inhibition at 10 µM at human ACC1 turned out to be 94%.

With `CCCCOc1cccc(Oc2ccc(-c3nc4ccc(C(C)NC(C)=O)cc4o3)nc2)c1` (stereo not drawn) [Example 13, N-(1-(2-(5-(3-butoxyphenoxy)pyridin-2-yl)-1,3-benzoxazol-6-yl)ethyl)acetamide], the inhibition at 10 µM at human ACC1 is 86%; in the assay with HCT116 cells, 19%. For `CCCCCc1cccc(OC2CN(c3nc4ccc(C(C)NC(C)=O)cc4o3)C2)c1` (stereo not drawn) [Example 29, N-(1-(2-(3-(3-pentylphenoxy)azetidin-1-yl)-1,3-benzoxazol-6-yl)ethyl)acetamide], the inhibition at 10 µM on human ACC1 amounted to 82%.

In the case of `CC(=O)NC(C)c1ccc2oc(-c3ccc(Oc4cccc(OCC5CC5)c4)cn3)cc2c1` (stereo not drawn) [Example 31, N-(1-(2-(5-(3-(cyclopropylmethoxy)phenoxy)pyridin-2-yl)-1-benzofuran-5-yl)ethyl)acetamide], the results for the inhibition at 10 µM at human ACC1 and in the assay on HCT116 cells were 98% and 42%, respectively. The like results for `CC(=O)NC(C)c1ccc2cc(-c3ccc(Oc4cccc(OCC5CC5)c4)cn3)oc2c1` (stereo not drawn) [Example 35, N-(1-(2-(5-(3-(cyclopropylmethoxy)phenoxy)pyridin-2-yl)-1-benzofuran-6-yl)ethyl)acetamide] were, in that order, 94% and 41%. Consider `CC(=O)NC(C)c1ccc2c(c1)CC(c1ccc(Oc3cccc(OCC4CC4)c3)cn1)O2` (stereo not drawn) [Example 36, N-(1-(2-(5-(3-(cyclopropylmethoxy)phenoxy)pyridin-2-yl)-2,3-dihydro-1-benzofuran-5-yl)ethyl)acetamide], for which the inhibition at 10 µM at human ACC1 was determined as 100%. `CC(=O)NC(C)c1ccc2c(c1)CC(c1ccc(Oc3cccc(OCC4CC4)c3)cn1)O2` (stereo not drawn) [Example 36b, N-(1-(2-(5-(3-(cyclopropylmethoxy)phenoxy)pyridin-2-yl)-2,3-dihydro-1-benzofuran-5-yl)ethyl)acetamide]: the “ACC1 inhibitory rate (%) at 10 μM” value on human ACC1 (10 µM) is listed as 101%. For the compound `CC(=O)NC(C)c1ccc2nc(-c3ccc(Oc4cccc(OCC5CC5)c4)nc3)oc2c1` (stereo not drawn) [Example 37, N-(1-(2-(6-(3-(cyclopropylmethoxy)phenoxy)pyridin-3-yl)-1,3-benzoxazol-6-yl)ethyl)acetamide], the inhibition at 10 µM at human ACC1 turned out to be 101%; in the assay with HCT116 cells, 44%. On the same counts, the results for `CC(=O)NC(C)c1ccc2sc(N3CC(Oc4cccc(OCC5CC5)c4)C3)nc2c1` (stereo not drawn) [Example 44, N-(1-(2-(3-(3-(cyclopropylmethoxy)phenoxy)azetidin-1-yl)-1,3-benzothiazol-5-yl)ethyl)acetamide] are 100% and 14%. Take `CC(=O)NC(C)c1ccc2nc(-c3ncc(Oc4cccc(OCC5CC5)c4)cc3C)oc2c1` (stereo not drawn) [Example 47, N-(1-(2-(5-(3-(cyclopropylmethoxy)phenoxy)-3-methylpyridin-2-yl)-1,3-benzoxazol-6-yl)ethyl)acetamide]: the inhibition at 10 µM at human ACC1 was 82%. In the case of `CC(=O)NC(C)c1cc2cc(-c3ccc(Oc4cccc(OCC5CC5)c4)cc3)ccc2o1` (stereo not drawn) [Example 52, N-(1-(5-(4-(3-(cyclopropylmethoxy)phenoxy)phenyl)-1-benzofuran-2-yl)ethyl)acetamide], the values for the inhibition at 10 µM on human ACC1 and in the assay on HCT116 cells were 94% and 20%, respectively. With `CC(=O)NC(C)c1ccc2cn(-c3ccc(Oc4cccc(OCC5CC5)c4)cc3)nc2c1` (stereo not drawn) [Example 56, N-(1-(2-(4-(3-(cyclopropylmethoxy)phenoxy)phenyl)-2H-indazol-6-yl)ethyl)acetamide], on human ACC1, the inhibition at 10 µM amounted to 94%.

As for `CC(=O)NC(C)c1ccc2nc(-c3ccc(Oc4cccc(OCC5CC5)c4)cc3)oc2c1C` (stereo not drawn) [Example 93, N-(1-(2-(4-(3-(cyclopropylmethoxy)phenoxy)phenyl)-7-methyl-1,3-benzoxazol-6-yl)ethyl)acetamide], on human ACC1, the inhibition at 10 µM turned out to be 94%. Same read-out and setting: under `CC(NC(N)=O)c1ccc2nc(-c3ccc(Oc4cccc(OCC5CC5)c4)nn3)oc2c1` (stereo not drawn) [Example 110, 1-(1-(2-(6-(3-(cyclopropylmethoxy)phenoxy)pyridazin-3-yl)-1,3-benzoxazol-6-yl)ethyl)urea] stands 98%.
